From patent US8785459B2, “Quinazoline compounds as kinase inhibitors” (Development Center for Biotechnology, priority 2011, dated 2014)

Legend:
A549 = assay: Anti-proliferative activity, CellTiter-96 assay, A549; assay type: cell-based; details: Homo sapiens, A549 cells, 72 hours incubation
Description: (§1) Antiproliferative Activity
(§2) The anti-proliferative activities of the compounds with formula (I) and formula (II) with respect to four human cancer cell lines (A549, A375, MDA-MB-231, and COLO205) were measured using the CellTiter™-96 assay kit (Promega) following the manufacturer's instructions. In brief, the cells were maintained in DMEM containing 10% FCS and incubated at 37° C. in 5% CO2 atmosphere. Cells were plated at a density of 2000 cells/well of a 96-well plate for 24 h, then treated with different concentrations of the compounds, and incubated for another 72 hours. At the end of the incubation, CellTiter™-96 Aqueous One Solution Reagent (Promega) was added and incubated for another 4.0 hours. Cell viability was determined by measuring absorbance at 490 nm using EMax® microplate reader (Molecular Devices). Data were processed and analyzed using GraphPad Prism version 4.

B-Raf = B-Raf (Homo sapiens (Human), UniProt P15056); assay: Raf kinase assay (B-Raf), [33P] incorporation into MEK1(K97R); assay type: biochemical; details: for inhibition at 1 µM: 1.0 μM compound, read-out: B-Raf inhibition at 1.0 μM
B-Raf, sequence (P15056 whole entry): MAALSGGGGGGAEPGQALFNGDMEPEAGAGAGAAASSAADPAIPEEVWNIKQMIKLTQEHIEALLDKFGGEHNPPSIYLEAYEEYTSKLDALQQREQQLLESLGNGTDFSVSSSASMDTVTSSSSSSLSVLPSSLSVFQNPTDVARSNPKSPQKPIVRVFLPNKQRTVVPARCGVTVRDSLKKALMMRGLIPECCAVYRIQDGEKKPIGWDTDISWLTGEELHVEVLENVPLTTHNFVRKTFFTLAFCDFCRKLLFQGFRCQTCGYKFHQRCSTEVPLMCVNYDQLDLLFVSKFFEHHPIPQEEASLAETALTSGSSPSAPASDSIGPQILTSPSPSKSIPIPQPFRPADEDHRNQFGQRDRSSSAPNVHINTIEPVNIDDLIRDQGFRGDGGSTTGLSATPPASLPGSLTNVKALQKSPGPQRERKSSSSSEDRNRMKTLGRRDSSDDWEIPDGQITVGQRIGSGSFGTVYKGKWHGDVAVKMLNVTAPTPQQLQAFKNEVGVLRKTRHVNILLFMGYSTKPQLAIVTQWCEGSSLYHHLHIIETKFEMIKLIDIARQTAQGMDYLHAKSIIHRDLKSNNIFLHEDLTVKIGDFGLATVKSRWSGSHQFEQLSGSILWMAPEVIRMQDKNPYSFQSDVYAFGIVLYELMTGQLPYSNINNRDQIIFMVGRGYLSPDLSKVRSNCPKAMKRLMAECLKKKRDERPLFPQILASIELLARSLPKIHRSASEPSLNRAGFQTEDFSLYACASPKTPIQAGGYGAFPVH
Method in brief: (§3)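 [33P] transfer to kinase-dead MEK1(K97R) substrate (500 ng) measured after 30 min at 30 °C in Tris pH 7.5 buffer containing 8 μM ATP. Enzyme inputs were 2 ng for C-Raf and 5 ng for B-Raf and B-Raf V600E. Duplicate 3-fold serial dilutions gave the half-maximal inhibitory concentration.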

B-Raf (V600E) = B-Raf (V600E) (Homo sapiens (Human), UniProt P15056, V600E); assay: Raf kinase assay (B-Raf (V600E)), [33P] incorporation into MEK1(K97R); assay type: biochemical
B-Raf (V600E), sequence (P15056 whole entry V600E): as the sequence (P15056 whole entry) above, with V600E counted along it
Method in brief: as §3

COLO205 = assay: Anti-proliferative activity, CellTiter-96 assay, COLO205; assay type: cell-based; details: Homo sapiens, COLO 205, COLO205 cells, 72 hours incubation
Description: as §1, §2

A375 = assay: Anti-proliferative activity, CellTiter-96 assay, A375; assay type: cell-based; details: Homo sapiens, A-375, A375 cells, 72 hours incubation
Description: as §1, §2

C-Raf = C-Raf (Homo sapiens (Human), UniProt P04049); assay: Raf kinase assay (C-Raf), [33P] incorporation into MEK1(K97R); assay type: biochemical
C-Raf, sequence (P04049 whole entry): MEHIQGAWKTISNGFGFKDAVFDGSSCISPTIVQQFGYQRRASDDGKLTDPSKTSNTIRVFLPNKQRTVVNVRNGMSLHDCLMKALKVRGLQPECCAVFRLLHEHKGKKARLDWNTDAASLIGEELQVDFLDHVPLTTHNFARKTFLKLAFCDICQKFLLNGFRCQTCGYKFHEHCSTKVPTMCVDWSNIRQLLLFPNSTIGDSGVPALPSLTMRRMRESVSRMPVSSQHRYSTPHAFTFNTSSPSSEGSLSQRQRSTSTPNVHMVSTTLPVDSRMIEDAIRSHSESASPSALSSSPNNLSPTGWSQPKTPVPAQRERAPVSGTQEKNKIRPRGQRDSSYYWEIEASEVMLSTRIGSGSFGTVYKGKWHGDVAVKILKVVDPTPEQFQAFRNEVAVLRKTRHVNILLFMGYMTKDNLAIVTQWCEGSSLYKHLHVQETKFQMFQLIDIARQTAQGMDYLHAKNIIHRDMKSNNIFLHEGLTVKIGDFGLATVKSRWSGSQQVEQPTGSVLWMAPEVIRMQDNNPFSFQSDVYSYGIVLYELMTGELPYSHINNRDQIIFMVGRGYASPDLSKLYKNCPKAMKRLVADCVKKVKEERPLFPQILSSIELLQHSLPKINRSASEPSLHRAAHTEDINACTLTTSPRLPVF
Method in brief: as §3

MDA-MB-231 = assay: Anti-proliferative activity, CellTiter-96 assay, MDA-MB-231; assay type: cell-based; details: Homo sapiens, MDA-MB-231 cells, 72 hours incubation
Description: as §1, §2

Row | IC50 (A549) [nM] | IC50 (B-Raf) [nM] | inhibition at 1 µM (B-Raf) [%] | IC50 (B-Raf (V600E)) [nM] | IC50 (COLO205) [µM] | IC50 (A375) [µM] | IC50 (C-Raf) [nM] | IC50 (MDA-MB-231) [µM] | SMILES
1 | 6400 ± 700 | 99.6 | 88.4 | 117 | 6.3 ± 0.2 | 5.4 ± 0.7 | 233 | 6.2 ± 0.4 | COc1ccc(-c2ccc3nccc(Nc4cccc5[nH]ncc45)c3c2)cc1C=O [Compound 116, 5-(4-(1H-indazol-4-ylamino)quinolin-6-yl)-2-methoxybenzaldehyde]
2 | 23500 ± 500 | 107 | 86.6 | 114 | 8.9 ± 0.1 | 23.7 ± 2.4 | 321 | 13.6 ± 0.9 | NC(=O)c1cccc(-c2ccc3nccc(Nc4cccc5[nH]ncc45)c3c2)c1 [Compound 117, 3-(4-(1H-indazol-4-ylamino)quinolin-6-yl)benzamide]
3 | 12100 ± 3200 | 134 | 88.2 | 119 | 7.3 ± 1 | 8.5 ± 1.2 | 277 | 10.9 ± 1.4 | CS(=O)(=O)c1ccc(-c2ccc3nccc(Nc4cccc5[nH]ncc45)c3c2)cc1 [Compound 120, N-(1H-indazol-4-yl)-6-(4-(methylsulfonyl)phenyl)quinolin-4-amine]
4 | 6100 ± 600 | 188 | 82.4 | 185 | 9.6 ± 0.6 | 7.3 ± 0.6 | 409 | 8.5 ± 1.4 | Oc1ccc(-c2ccc3nccc(Nc4cccc5[nH]ncc45)c3c2)cc1 [Compound 124, 4-(4-(1H-indazol-4-ylamino)quinolin-6-yl)phenol]
5 | 2700 ± 1700 | 142 | 83.6 | 162 | 16.8 ± 9.3 | 2.9 ± 1.6 | 287 | 2.4 ± 1.1 | COc1cc(-c2ccc3ncnc(Nc4cccc5[nH]nc(Cl)c45)c3c2)ccc1O [Compound 126, 4-(4-(3-chloro-1H-indazol-4-ylamino)quinazolin-6-yl)-2-methoxyphenol]
6 | 9300 ± 1300 | 168 | 85.8 | 254 | 11.5 ± 0.8 | 6 ± 1 | 6640 | 33.8 ± 6.9 | Oc1cccc(Nc2ncnc3ccc(-c4ccccc4)cc23)c1 [Compound 133, 3-(6-phenylquinazolin-4-ylamino)phenol]
7 | 10800 ± 700 | 149 | 78.2 | 152 | 8.3 ± 0.4 | 23.6 ± 1.2 | 1330 | 19.5 ± 2.1 | Nc1ccc(F)c(-c2ccc3nccc(Nc4cccc5[nH]ncc45)c3c2)c1 [Compound 137, 6-(5-amino-2-fluorophenyl)-N-(1H-indazol-4-yl)quinolin-4-amine]
8 | 900 ± 500 | 60 | 88.4 | 70.9 | 6.4 ± 0.6 | 1 ± 0.2 | 590 | 1 ± 0.1 | COc1cc(-c2ccc3ncnc(Nc4cc(O)ccc4C)c3c2)ccc1O [Compound 154, 4-(4-(5-hydroxy-2-methylphenylamino)quinazolin-6-yl)-2-methoxyphenol]
9 | 1600 ± 400 | 57.3 | 92.4 | 81.7 | 9.6 ± 3.8 | 1.9 ± 0.3 | 301 | 2.8 ± 0.2 | COc1cc(-c2ccc3ncnc(Nc4cc(O)c(C)cc4F)c3c2)ccc1O [Compound 156, 4-fluoro-5-(6-(4-hydroxy-3-methoxyphenyl)quinazolin-4-ylamino)-2-methylphenol]
10 | 2500 ± 800 | 26.8 | 92 | 37.5 | 7.8 | 2.9 ± 0.6 | 161 | 4.7 ± 0.3 | COc1cc(-c2ccc3ncnc(Nc4ccc(Cl)c(O)c4)c3c2)ccc1O [Compound 157, 4-(4-(4-chloro-3-hydroxyphenylamino)quinazolin-6-yl)-2-methoxyphenol]
11 | 900 ± 400 | 3.8 | 96.4 | 7.1 | 5.1 ± 1 | 0.4 ± 0.1 | 36.3 | 1.2 ± 0.1 | COc1cc(-c2ccc3ncnc(Nc4cc(O)c(F)cc4F)c3c2)ccc1O [Compound 158, 2,4-difluoro-5-(6-(4-hydroxy-3-methoxyphenyl)quinazolin-4-ylamino)phenol]
12 | 2900 ± 400 | 11.1 | 97.4 | 19.7 | 7.9 ± 1.9 | 2.3 ± 0.5 | 69.2 | 4.3 ± 0.6 | COc1cc(-c2ccc3ncnc(Nc4cc(O)c(Cl)cc4F)c3c2)ccc1O [Compound 159, 2-chloro-4-fluoro-5-(6-(4-hydroxy-3-methoxyphenyl)quinazolin-4-ylamino)phenol]
13 | > 30000 | 8.9 | 97.9 | 19 | 20.9 ± 12.6 | 8.2 ± 1.3 | 147 | > 30 | Oc1cc(Nc2ncnc3ccc(-c4ccc(Cl)cc4)cc23)c(F)cc1F [Compound 160, 5-(6-(4-chlorophenyl)quinazolin-4-ylamino)-2,4-difluorophenol]
14 | 1500 ± 300 | 16.9 | 94.7 | 23.4 | 5.2 ± 1.8 | 1 ± 0.1 | 133 | 2.1 ± 0.5 | COc1cc(-c2ccc3ncnc(Nc4ccc(F)c(O)c4)c3c2)ccc1O [Compound 161, 4-(4-(4-fluoro-3-hydroxyphenylamino)quinazolin-6-yl)-2-methoxyphenol]
15 | 2400 ± 700 | 2.9 | 94.6 | 4.5 | 5.1 ± 1.4 | 1.5 ± 0.1 | 197 | 2.1 ± 0.1 | COc1cc(-c2ccc3ncnc(Nc4ccc(F)c(O)c4F)c3c2)ccc1O [Compound 162, 2,6-difluoro-3-(6-(4-hydroxy-3-methoxyphenyl)quinazolin-4-ylamino)phenol]
16 | 26000 ± 3200 | 2.4 | 94.2 | 4.5 | 15.7 ± 2 | 4.1 ± 0.7 | 256 | 17.8 ± 0.2 | Oc1c(F)ccc(Nc2ncnc3ccc(-c4ccc5[nH]ncc5c4)cc23)c1F [Compound 163, 3-(6-(1H-indazol-5-yl)quinazolin-4-ylamino)-2,6-difluorophenol]
